Results taken from the supplement of paper PMC10307832.

Compound: CCn1c(-c2nonc2N)nc2c(C#CC(C)(C)O)ncc(OC[C@H]3CCCNC3)c21
Assay: relative viability (nuclei count vs DMSO), 5 days (fraction); higher = more cells survive
Procedure, shortened: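 Lung cancer cell lines in 1536-well plates were kept overnight at 37 °C, then pinned with five library-drug doses (not always all listed) spaced by √10 on vehicle-anchored plates. After 5 days without medium change, cells were fixed, permeabilised and Hoechst-stained in one step, imaged at 4×, and nuclei were counted with MetaXpress. Viability is treated-well nuclei divided by vehicle-well nuclei, taken as the median over plates. Plates passed only with control CV below 25% and at least one doubling.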

Cell Line | relative viability (0.01 µM) | relative viability (0.03162 µM) | relative viability (0.1 µM) | relative viability (0.3162 µM) | relative viability (1 µM)
201T | 0.95 | 0.987 | 0.959 | 0.952 | 0.986
A549 | 0.934 | 0.995 | 0.996 | 0.896 | 0.951
A-427 | 0.994 | 1.06 | 0.918 | 0.965 | 1.08
ABC-1 | 0.934 | 0.869 | 0.864 | 0.768 | 0.696
BEN | 0.988 | 1.03 | 0.735 | 0.935 | 0.962
CAL-12T | 1.12 | 0.997 | 0.94 | 0.973 | 0.997
COR-L23 | 0.991 | 1.04 | 0.986 | 0.973 | 1.04
COR-L 105 | 0.919 | 0.961 | 1.01 | 0.843 | 1.04
Calu-6 | 0.995 | 1.02 | 1.02 | 0.982 | 1.03
ChaGo-K-1 | 0.965 | 0.988 | 0.972 | 0.936 | 1
EBC-1 | 0.986 | 0.963 | 0.973 | 0.883 | 0.757
EKVX | 0.962 | 0.942 | 0.97 | 0.933 | 0.924
EMC-BAC-2 | 0.919 | 0.725 | 0.933 | 0.937 | 1.04
EPLC-272H | 0.874 | 0.936 | 0.869 | 0.91 | 0.87
H3255 | 0.924 | 0.949 | 0.998 | 0.856 | 0.904
HARA | 0.85 | 0.97 | 0.722 | 0.876 | 0.778
HCC-15 | 0.959 | 1.02 | 1.04 | 0.952 | 0.914
HCC-44 | 0.951 | 0.852 | 0.979 | 0.974 | 0.993
HCC-78 | 0.882 | 0.926 | 0.971 | 0.962 | 0.844
HCC-366 | 0.993 | 1.05 | 0.805 | 0.998 | 0.99
HCC-827 | 1.06 | 1.03 | 1 | 0.986 | 0.99
HOP-62 | 0.989 | 0.945 | 1.01 | 0.976 | 1.01
IA-LM | 1.01 | 1.05 | 1.01 | 0.852 | 0.853
LC-2-ad | 0.903 | 0.951 | 0.964 | 0.949 | 0.989
LCLC-97TM1 | 0.989 | 1.01 | 1.16 | 0.854 | 0.944
LCLC-103H | 0.964 | 0.988 | 0.929 | 0.938 | 1.09
LK-2 | 0.889 | 1.06 | 0.815 | 0.913 | 0.872

Cell Line | relative viability (0.01 µM) | relative viability (0.03162 µM) | relative viability (0.1 µM) | relative viability (0.3162 µM) | relative viability (1 µM)
LOU-NH91 | 1 | 0.924 | 0.989 | 0.9 | 0.888
LU99A | 1.07 | 1.13 | 0.889 | 0.854 | 0.922
LXF-289 | 1.03 | 0.991 | 1.03 | 0.972 | 1.11
NCI-H23 | 0.918 | 0.939 | 0.878 | 0.902 | 0.852
NCI-H322M | 0.887 | 0.763 | 0.839 | 0.827 | 0.828
NCI-H358 | 0.905 | 1.01 | 0.935 | 0.912 | 0.913
NCI-H441 | 0.927 | 1.05 | 1.04 | 0.948 | 0.99
NCI-H460 | 0.977 | 0.983 | 0.983 | 0.998 | 0.949
NCI-H520 | 0.905 | 0.921 | 0.779 | 0.753 | 0.665
NCI-H522 | 1.07 | 1.03 | 0.972 | 0.826 | 1.02
NCI-H596 | 0.947 | 0.962 | 0.752 | 0.936 | 1.06
NCI-H647 | 0.982 | 0.995 | 0.952 | 0.918 | 0.981
NCI-H650 | 0.788 | 0.854 | 0.854 | 0.998 | 0.832
NCI-H661 | 1.01 | 1.03 | 0.976 | 1.01 | 0.972
NCI-H727 | 1.02 | 0.866 | 0.871 | 0.848 | 0.973
NCI-H838 | 1.01 | 1 | 0.993 | 0.846 | 0.963
NCI-H1299 | 0.984 | 1.05 | 1.01 | 1.01 | 1.04
NCI-H1355 | 0.932 | 0.904 | 0.958 | 0.945 | 0.992
NCI-H1395 | 0.848 | 0.693 | 0.762 | 0.737 | 0.705
NCI-H1437 | 0.957 | 0.974 | 1.05 | 0.935 | 1.1
NCI-H1563 | 1.01 | 0.984 | 0.96 | 0.901 | 0.89
NCI-H1623 | 1.07 | 1.02 | 0.963 | 0.967 | 1.09
NCI-H1648 | 0.922 | 0.869 | 0.775 | 0.851 | 0.973
NCI-H1650 | 0.941 | 0.994 | 0.877 | 0.841 | 0.833
NCI-H1651 | 0.941 | 0.935 | 0.95 | 0.924 | 1.01
NCI-H1666 | 1.02 | 0.956 | 1.01 | 0.949 | 0.954
NCI-H1703 | 0.828 | 0.973 | 0.839 | 0.788 | 0.612

Cell Line | relative viability (0.01 µM) | relative viability (0.03162 µM) | relative viability (0.1 µM) | relative viability (0.3162 µM) | relative viability (1 µM)
NCI-H1734 | 0.95 | 0.978 | 0.893 | 0.932 | 0.86
NCI-H1755 | 0.989 | 1.03 | 0.973 | 0.903 | 1.01
NCI-H1792 | 0.887 | 0.636 | 0.939 | 0.908 | 0.932
NCI-H1793 | 0.936 | 0.879 | 0.751 | 0.859 | 0.942
NCI-H1915 | 0.965 | 1.03 | 0.917 | 0.983 | 0.996
NCI-H1944 | 0.941 | 0.922 | 0.919 | 0.935 | 1.01
NCI-H1975 | 0.932 | 1 | 0.96 | 0.921 | 0.843
NCI-H1993 | 0.968 | 0.976 | 0.985 | 0.92 | 0.852
NCI-H2009 | 1 | 1 | 1.02 | 0.95 | 0.932
NCI-H2023 | 0.929 | 0.949 | 0.909 | 0.767 | 0.834
NCI-H2085 | 0.991 | 0.977 | 1 | 0.937 | 0.97
NCI-H2087 | 0.931 | 1.05 | 1.04 | 1.06 | 0.915
NCI-H2126 | 0.98 | 0.908 | 0.995 | 0.996 | 1.02
NCI-H2170 | 0.962 | 1.01 | 0.996 | 0.91 | 0.958
NCI-H2228 | 0.938 | 1.1 | 1.04 | 0.848 | 0.809
NCI-H2342 | 0.957 | 0.881 | 0.99 | 0.91 | 0.964
NCI-H2347 | 1 | 1.03 | 0.956 | 1 | 0.93
NCI-H2405 | 1.05 | 0.934 | 0.973 | 0.969 | 0.993
NCI-H3122 | 1 | 0.973 | 1.06 | 0.991 | 1.01
PC-3 [JPC-3] | 1.02 | 1.02 | 1.05 | 0.996 | 1.08
PC-14 | 0.937 | 1 | 1.11 | 0.954 | 1.03
RERF-LC-KJ | 0.959 | 0.97 | 0.99 | 0.966 | 1.05
SK-LU-1 | 1.06 | 1.09 | 0.88 | 0.953 | 0.966
SK-MES-1 | 0.998 | 1.01 | 1.02 | 0.944 | 0.993
SW 900 | 0.796 | 0.73 | 0.76 | 0.822 | 0.892
SW 1573 | 0.98 | 0.932 | 0.871 | 0.677 | 0.777
